The values below come from article PMC5287478, “Quantitative Affinity Determination by Fluorescence Anisotropy Measurements of Individual Nanoliter Droplets” (Analytical Chemistry, 2017).

The term Kd denotes the concentration at which binding is half-saturated.

In one data set the target is T1, HumRadA18 (Pyrococcus furiosus, UniProt O74036, D220A/D267M/E219S/H199N/H264F/I169M/I200V/I222M/K198D/K221M/K223V/K263R/L213Q/L225S/L274E/Q216Y/V168A/V202Y/V215L/V232Y/W170Y/Y201A/Y275F).
T1 construct: made in house; host or cells: E. coli BL21(DE3) pUBS520, pBAT plasmid
Description: Competition assay with BRC4^fl in nanoliter droplets. It counts as binding.

Data set [1] is described as follows: Retention of BRC4fl in droplets (leakage into oil phase). In kind it is physicochemical. The conditions noted are these: HFE 7500 with 1% w/v AZ2C fluorosurfactant, approx. 1 minute to detection point. As to the method: AZ2C fluoroLsurfactant (made inLhouse according to a previously published method).4 The time to reach the detection point (approx. 1 minute) was sufficient for significant leakage of BRC4fl from the droplet. Addition of additives such as BSA has been found effective in increasing the effective solubility of reagents.5 BSA was titrated using the same droplet titration technique up to 1.2%. The fluorescence intensity measured at the detection point was […]
increase retention of the fluorophore in the droplet. Anisotropy reached a steadyLstate value when BSA was present at concentrations above 0.2%. Although the linear increase of […]
presence of BSA concentrations above 1% made droplet formation more difficult, because of the increased viscosity of the aqueous phase and the formation of BSA vesicles. Therefore 1% BSA was chosen as a compromise between these effects and all experiments were […]
Figure S4. Influence of BSA concentration on the retention of BRC4fl within the droplet. (A) Intensity is linearly increasing with BSA concentration. (B) Fluorescence anisotropy converges towards a steadyLstate value above a threshold concentration of BSA

In another data set the test system is RAD51. The note with it: 30–35 amino acid peptide corresponding to BRC repeat 4; cited from earlier work. An excerpt:
We explore the potential of single droplet anisotropy measurements for the study of structure–activity relationships for protein–protein interactions in nanoliter volumes. Specifically, we address the interactions of the BRC4 peptide, a reductionist model of the recombination mediator BRCA2, with mutants of an archaeal surrogate of the recombinase RAD51.[10] […] Inhibit ...

The molecule `CC[C@H](C)[C@H](NC(=O)[C@H](CCCCN)NC(=O)[C@@H](NC(=O)[C@H](CCCCN)NC(=O)[C@H](CCCCN)NC(=O)CNC(=O)[C@H](CO)NC(=O)[C@H](C)NC(=O)[C@@H](NC(=O)[C@H](Cc1c[nH]cn1)NC(=O)[C@H](Cc1ccccc1)NC(=O)CNC(=O)[C@H](CC(C)C)NC(=O)[C@H](CC(C)C)NC(=O)[C@@H](NC(=O)[C@@H]1CCCN1C(=O)[C@H](CCC(=O)O)NC(=O)[C@H](CCCCN)NC(=O)[C@H](CSC1CC(=O)N(c2ccc3c(c2)C(=O)OC32c3ccc(O)cc3Oc3cc(O)ccc32)C1=O)NC(C)=O)[C@@H](C)O)[C@@H](C)O)C(C)C)C(=O)N[C@@H](C)C(=O)N[C@@H](CCCCN)C(=O)N[C@@H](CCC(=O)O)C(=O)N[C@@H](CO)C(=O)N[C@@H](CC(C)C)C(=O)N[C@@H](CC(=O)O)C(=O)N[C@@H](CCCCN)C(=O)N[C@H](C(=O)N[C@@H](CCCCN)C(=O)N[C@@H](CC(N)=O)C(=O)N[C@@H](CC(C)C)C(=O)N[C@@H](Cc1ccccc1)C(=O)N[C@@H](CC(=O)O)C(=O)N[C@@H](CCC(=O)O)C(=O)N[C@@H](CCCCN)C(=O)N[C@@H](CCC(=O)O)C(=O)N[C@@H](CCC(N)=O)C(N)=O)C(C)C` (stereo partly drawn) [BRC4] gave a Kd on HumRadA18 of 0.045 µM. For the same molecule, the leakage from droplet result in data set [1] was “high propensity for leakage”. For the same molecule, in the data set on RAD51, the RAD51 activity entry is recorded as “block RAD51 activity”.
